In patent publication US20260199323A1, “LIGAND COMPOUNDS FOR E3 UBIQUITIN LIGASE, PROTEIN DEGRADERS DEVELOPED ON BASIS OF LIGAND COMPOUNDS, AND USES THEREOF” (GLUETACS THERAPEUTICS (SHANGHAI) CO., LTD., priority 2021, published 2026):
Like-named read-outs stand apart in the source and are kept apart here.

Assays:
Assay type in all cases: cell-based, Human
HGC-27 = test: CCK-8 tumor cell proliferation, HGC-27; settings: Homo sapiens; Table 18, FAK inhibitor based; HGC-27; read-out: IC50 inhibiting proliferation of tumor cells, HGC-27
Experimental: (§1) The tumor cells used herein were cultured in a cell culture medium listed in table 4 at 37° C. in an incubator with 5% CO2. Prior to experimentation, all cells used were correctly identified by STR profiling, and tested negative for mycoplasma through routine screenings.
(§2) IC50 values of the compounds of the present disclosure (including the compounds in Tables 1 and 3, and compounds of examples) were measured using the Meilun Cell Counting Kit-8 kit from Dalian Meilun Biotech Co., Ltd. Assay details are as follows: tumor cells were seeded in a 96-well plate at a density listed in Table 5. After 24 h, 100 μL of the inoculated cells were treated with 0.5 μL of the compounds of the present disclosure (including the compounds in Tables 1 and 3, and compounds of examples) at 10 different successively decreasing concentrations (starting at the highest concentration of 10 μM; 5-fold serial dilutions). After the cells were treated with the compounds of the present disclosure for a period of time, the cell viability detection reagent was added to the culture medium for cell viability assessment according to the instructions provided with the CCK-8 kit. […] The growth inhibition of the compounds of the present disclosure on cells was plotted by Prism Graphpad software, and the IC50 values of the compounds of the present disclosure were calculated therefrom.

CCRF-CEM = test: CCK-8 tumor cell proliferation, CCRF-CEM; settings: CCRF-CEM, read-out: IC50 inhibiting proliferation of tumor cells, CCRF-CEM
Summary of the method: (§3)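 STR-authenticated, mycoplasma-negative cells were cultured at 37 °C with 5% CO2. One day after plating, they were treated with a 5-fold serial dilution of compound (10 points, highest 10 μM). CCK-8 was used to assess viability, giving IC50 values.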

PC-9 = test: CCK-8 tumor cell proliferation, PC-9; settings: Homo sapiens; Table 18, FAK inhibitor based; PC-9; read-out: IC50 inhibiting proliferation of tumor cells, PC-9
Mino = test: CCK-8 tumor cell proliferation, Mino; settings: Homo sapiens; Table 18, FAK inhibitor based; Mino; read-out: IC50 inhibiting proliferation of tumor cells, Mino
Summary of the method: as §3

SR = test: CCK-8 tumor cell proliferation, SR; settings: Homo sapiens; Table 18, FAK inhibitor based; SR; read-out: IC50 inhibiting proliferation of tumor cells, SR
Summary of the method: as §3

MDA-MB-231 = test: CCK-8 tumor cell proliferation, MDA-MB-231; settings: Homo sapiens; Table 18, FAK inhibitor based; MDA-MB-231; read-out: IC50 inhibiting proliferation of tumor cells, MDA-MB-231
Summary of the method: as §3

SW620 = test: CCK-8 tumor cell proliferation, SW620; settings: SW620, read-out: IC50 inhibiting proliferation of tumor cells, SW620
Summary of the method: as §3

CAL-62 = test: CCK-8 tumor cell proliferation, CAL-62; settings: Table 19, IRAK4 inhibitor based, CAL-62, read-out: IC50 inhibiting proliferation of tumor cells, CAL-62
Summary of the method: as §3

SU-DHL-4 = test: CCK-8 tumor cell proliferation, SU-DHL-4; settings: Table 19, IRAK4 inhibitor based, read-out: IC50 inhibiting proliferation of tumor cells, SU-DHL-4
Experimental: as §1, §2

Jurkat = test: CCK-8 tumor cell proliferation, Jurkat; settings: Table 19, IRAK4 inhibitor based, read-out: IC50 inhibiting proliferation of tumor cells, Jurkat
Summary of the method: as §3

LNcap = test: CCK-8 tumor cell proliferation, LNcap; settings: Table 19, IRAK4 inhibitor based, Lncap, read-out: IC50 inhibiting proliferation of tumor cells, Lncap
Summary of the method: as §3

[1] = Homo sapiens, Table 18, FAK inhibitor based
[2] = Homo sapiens, SW-620, Table 18, FAK inhibitor based
[3] = Homo sapiens, Table 19, IRAK4 inhibitor based
[4] = Homo sapiens, SW-620, Table 19, IRAK4 inhibitor based
[5] = Table 19, IRAK4 inhibitor based

IC50 (HGC-27) [nM]	IC50 (CCRF-CEM; [1]) [nM]	IC50 (PC-9) [nM]	IC50 (SR) [nM]	IC50 (MDA-MB-231) [nM]	IC50 (CAL-62; Homo sapiens) [nM]	IC50 (CCRF-CEM; [3]) [nM]	IC50 (SU-DHL-4; Homo sapiens) [nM]	IC50 (Jurkat; Homo sapiens) [nM]	IC50 (LNcap; Homo sapiens) [nM]	IC50 (SW620; [4]) [nM]	Structure (SMILES)	further results
1000 to 5000	< 50	1000 to 5000	100 to 500	50 to 100							CNC(=O)c1ccccc1Nc1cc(Nc2ccc(N3CCN(Cc4ccc5c(c4)CN(C4CCC(=O)NC4=O)C5=O)CC3)cc2OC)ncc1C(F)(F)F (centres unmarked) [GT-03014, 2-((2-((4-(4-((2-(2,6-dioxopiperidin-3-yl)-1-oxoisoindolin-5-yl)methyl)piperazin-1-yl)-2-methoxyphenyl)amino)-5-(trifluoromethyl)pyridin-4-yl)amino)-N-methylbenzamide]	IC50 (Mino): < 50 nM; IC50 (SW620; [2]): < 50 nM
1000 to 5000	500 to 1000	500 to 1000	100 to 500	1000 to 5000							CNC(=O)c1ccccc1Nc1cc(Nc2ccc(N3CCOCC3)cc2OC)ncc1C(F)(F)F [PND-1186, reference compound]	IC50 (Mino): 500 to 1000 nM; IC50 (SW620; [2]): < 50 nM
					< 50	< 50	< 50	< 50	< 50	< 50	O=C1CCC(N2Cc3c(ccc(CN4CCC(n5cc(NC(=O)c6coc(-c7ccnc(NCC8CC8)c7)n6)c(C(F)F)n5)CC4)c3F)C2=O)C(=O)N1 (centres unmarked) [GT-04154, 2-(2-((cyclopropylmethyl)amino)pyridin-4-yl)-N-(3-(difluoromethyl)-1-(1-((2-(2,6-dioxopiperidin-3-yl)-4-fluoro-1-oxoisoindolin-5-yl)methyl)piperidin-4-yl)-1H-pyrazol-4-yl)oxazole-4-carboxamide]	
					< 50	< 50	< 50	< 50	< 50	< 50	O=C1CCC(N2Cc3cc(CN4CCC(n5cc(NC(=O)c6coc(-c7ccnc(NCC8CC8)c7)n6)c(C(F)F)n5)CC4)ccc3C2=O)C(=O)N1 (centres unmarked) [GT-04153, 2-(2-((cyclopropylmethyl)amino)pyridin-4-yl)-N-(3-(difluoromethyl)-1-(1-((2-(2,6-dioxopiperidin-3-yl)-1-oxoisoindolin-5-yl)methyl)piperidin-4-yl)-1H-pyrazol-4-yl)oxazole-4-carboxamide]	
100 to 500	100 to 500	500 to 1000	< 50	100 to 500							CNC(=O)c1ccccc1Nc1cc(Nc2ccc(N3CCC(N4CCN(Cc5ccc6c(c5F)CN(C5CCC(=O)NC5=O)C6=O)CC4)CC3)cc2OC)ncc1C(F)(F)F (centres unmarked) [GT-03595, 2-((2-((4-(4-(4-((2-(2,6-dioxopiperidin-3-yl)-4-fluoro-1-oxoisoindolin-5-yl)methyl)piperazin-1-yl)piperidin-1-yl)-2-methoxyphenyl)amino)-5-(trifluoromethyl)pyridin-4-yl)amino)-N-methylbenzamide]	
500 to 1000	100 to 500	1000 to 5000	50 to 100	500 to 1000							CNC(=O)c1ccccc1Nc1cc(Nc2ccc(N3CCC(N4CCN(Cc5cc6c(cc5F)C(=O)N(C5CCC(=O)NC5=O)C6)CC4)CC3)cc2OC)ncc1C(F)(F)F (centres unmarked) [GT-03596, 2-((2-((4-(4-(4-((2-(2,6-dioxopiperidin-3-yl)-6-fluoro-1-oxoisoindolin-5-yl)methyl)piperazin-1-yl)piperidin-1-yl)-2-methoxyphenyl)amino)-5-(trifluoromethyl)pyridin-4-yl)amino)-N-methylbenzamide]	
					< 50	< 50	100 to 500	< 50	< 50	< 50	O=C1CCC(N2Cc3cc(CN4CCC(n5cc(NC(=O)c6coc(-c7ccnc(NCC(F)(F)F)c7)n6)c(C(F)F)n5)CC4)cc(F)c3C2=O)C(=O)N1 (centres unmarked) [GT-04099, N-(3-(difluoromethyl)-1-(1-((2-(2,6-dioxopiperidin-3-yl)-7-fluoro-1-oxoisoindolin-5-yl)methyl)piperidin-4-yl)-1H-pyrazol-4-yl)-2-(2-((2,2,2-trifluoroethyl)amino)pyridin-4-yl)oxazole-4-carboxamide]	
					< 50	< 50	100 to 500	< 50	< 50	< 50	O=C1CCC(N2Cc3cc(CN4CCC(n5cc(NC(=O)c6coc(-c7ccnc(NCC8CC8)c7)n6)c(C(F)F)n5)CC4)cc(F)c3C2=O)C(=O)N1 (centres unmarked) [GT-04172, 2-(2-((cyclopropylmethyl)amino)pyridin-4-yl)-N-(3-(difluoromethyl)-1-(1-((2-(2,6-dioxopiperidin-3-yl)-7-fluoro-1-oxoisoindolin-5-yl)methyl)piperidin-4-yl)-1H-pyrazol-4-yl)oxazole-4-carboxamide]	
500 to 1000	100 to 500	500 to 1000	< 50	< 50							CNC(=O)c1ccccc1Nc1cc(Nc2ccc(N3CCC(NCc4ccc5c(c4)CN(C4CCC(=O)NC4=O)C5=O)CC3)cc2OC)ncc1C(F)(F)F (centres unmarked) [GT-03213, 2-((2-((4-(4-(((2-(2,6-dioxopiperidin-3-yl)-1-oxoisoindolin-5-yl)methyl)amino)piperidin-1-yl)-2-methoxyphenyl)amino)-5-(trifluoromethyl)pyridin-4-yl)amino)-N-methylbenzamide]	IC50 (SW620; [2]): 500 to 1000 nM
					< 50	< 50	< 50	< 50	< 50	< 50	O=C1CCC(N2Cc3cc(CN4CCC(n5cc(NC(=O)c6coc(-c7ccnc(NCC(F)(F)F)c7)n6)c(C(F)F)n5)CC4)ccc3C2=O)C(=O)N1 (centres unmarked) [GT-04120, N-(3-(difluoromethyl)-1-(1-((2-(2,6-dioxopiperidin-3-yl)-1-oxoisoindolin-5-yl)methyl)piperidin-4-yl)-1H-pyrazol-4-yl)-2-(2-((2,2,2-trifluoroethyl)amino)pyridin-4-yl)oxazole-4-carboxamide]	
											CC(C)Nc1cc(-n2ccc3cc(C#N)cnc32)ncc1C(=O)N[C@H]1CC[C@H](C(=O)NCc2ccc3c(c2)CN(C2CCC(=O)NC2=O)C3=O)CC1 (some centres unmarked) [GT-04077, 6-(5-cyano-1H-pyrrolo[2,3-b]pyridin-1-yl)-N-((1r,4r)-4-(((2-(2,6-dioxopiperidin-3-yl)-1-oxoisoindolin-5-yl)methyl)carbamoyl)cyclohexyl)-4-(isopropylamino)nicotinamide]	IC50 (CAL-62): < 50 nM; IC50 (CCRF-CEM; [5]): < 50 nM; IC50 (SU-DHL-4): 500 to 1000 nM; IC50 (Jurkat): < 50 nM; IC50 (LNcap): 100 to 500 nM; IC50 (SW620; [5]): 100 to 500 nM
500 to 1000	100 to 500	500 to 1000	50 to 100	500 to 1000							CNC(=O)c1ccccc1Nc1cc(Nc2ccc(N3CCC(N4CCN(Cc5cc(F)c6c(c5)CN(C5CCC(=O)NC5=O)C6=O)CC4)CC3)cc2OC)ncc1C(F)(F)F (centres unmarked) [GT-03597, 2-((2-((4-(4-(4-((2-(2,6-dioxopiperidin-3-yl)-7-fluoro-1-oxoisoindolin-5-yl)methyl)piperazin-1-yl)piperidin-1-yl)-2-methoxyphenyl)amino)-5-(trifluoromethyl)pyridin-4-yl)amino)-N-methylbenzamide]	
